What was measured:
Experiment in all cases: Kinase profiling
Assay type in all cases: biochemical
DYRK1B = biological target: T1, DYRK1B (Homo sapiens, UniProt Q9Y463)
T1 construct: purchased ProQinase (Freiburg, Germany)
Experimental: (§1) The analysis was performed by ProQinase (Freiburg, Germany).

PKMYT1 = biological target: T2, PKMYT1 (Homo sapiens, UniProt Q99640)
T2 construct: purchased ProQinase (Freiburg, Germany)
T2 sequence (Q99640 1-499): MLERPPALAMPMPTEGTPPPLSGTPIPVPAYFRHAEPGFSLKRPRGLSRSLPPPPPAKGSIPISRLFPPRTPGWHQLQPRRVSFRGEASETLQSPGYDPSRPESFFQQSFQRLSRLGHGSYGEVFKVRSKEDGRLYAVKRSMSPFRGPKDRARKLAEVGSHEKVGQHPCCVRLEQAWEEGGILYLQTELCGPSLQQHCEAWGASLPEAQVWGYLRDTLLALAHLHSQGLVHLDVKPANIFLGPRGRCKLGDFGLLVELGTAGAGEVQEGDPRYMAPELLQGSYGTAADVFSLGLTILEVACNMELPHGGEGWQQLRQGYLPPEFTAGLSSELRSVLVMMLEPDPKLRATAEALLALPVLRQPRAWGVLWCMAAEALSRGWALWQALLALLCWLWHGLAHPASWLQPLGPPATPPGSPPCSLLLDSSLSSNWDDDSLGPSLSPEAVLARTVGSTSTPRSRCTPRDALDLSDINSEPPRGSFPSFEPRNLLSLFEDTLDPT
Experimental: as §1

EGFR = biological target: T3, EGFR (Homo sapiens, UniProt P00533)
T3 construct: purchased ProQinase (Freiburg, Germany)
T3 sequence (P00533 25-1210): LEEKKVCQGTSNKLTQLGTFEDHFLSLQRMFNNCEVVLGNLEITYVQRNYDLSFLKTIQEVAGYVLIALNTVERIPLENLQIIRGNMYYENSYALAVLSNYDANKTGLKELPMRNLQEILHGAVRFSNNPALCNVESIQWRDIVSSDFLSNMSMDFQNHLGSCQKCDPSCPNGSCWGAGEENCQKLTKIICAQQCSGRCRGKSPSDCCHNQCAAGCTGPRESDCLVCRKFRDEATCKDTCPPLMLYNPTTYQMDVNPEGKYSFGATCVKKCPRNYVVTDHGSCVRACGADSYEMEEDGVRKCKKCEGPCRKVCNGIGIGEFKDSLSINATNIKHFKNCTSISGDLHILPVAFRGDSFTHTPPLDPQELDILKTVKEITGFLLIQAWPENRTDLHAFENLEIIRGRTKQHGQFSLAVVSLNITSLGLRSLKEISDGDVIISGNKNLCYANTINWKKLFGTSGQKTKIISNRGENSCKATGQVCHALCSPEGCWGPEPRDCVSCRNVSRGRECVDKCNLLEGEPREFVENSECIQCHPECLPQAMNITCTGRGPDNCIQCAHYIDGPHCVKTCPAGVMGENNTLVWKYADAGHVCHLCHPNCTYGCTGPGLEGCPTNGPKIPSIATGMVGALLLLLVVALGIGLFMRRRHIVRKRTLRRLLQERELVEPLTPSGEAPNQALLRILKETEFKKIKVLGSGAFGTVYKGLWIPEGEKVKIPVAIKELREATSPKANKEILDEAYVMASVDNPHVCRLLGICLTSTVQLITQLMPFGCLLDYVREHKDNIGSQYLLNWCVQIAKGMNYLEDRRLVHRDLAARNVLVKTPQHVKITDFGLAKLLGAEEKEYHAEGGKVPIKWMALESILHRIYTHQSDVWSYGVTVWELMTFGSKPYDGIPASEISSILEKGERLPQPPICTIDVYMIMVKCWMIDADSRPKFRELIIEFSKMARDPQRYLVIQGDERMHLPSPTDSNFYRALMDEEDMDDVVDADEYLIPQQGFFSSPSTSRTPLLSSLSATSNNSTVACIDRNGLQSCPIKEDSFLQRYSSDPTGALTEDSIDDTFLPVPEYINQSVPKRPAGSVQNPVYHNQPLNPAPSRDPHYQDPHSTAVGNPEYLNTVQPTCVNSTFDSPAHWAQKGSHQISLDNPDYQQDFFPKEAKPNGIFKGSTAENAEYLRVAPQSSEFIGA
Experimental: as §1

EPHA1 = biological target: T4, EPHA1 (Homo sapiens, UniProt P21709)
T4 construct: purchased ProQinase (Freiburg, Germany)
T4 sequence (P21709 26-976): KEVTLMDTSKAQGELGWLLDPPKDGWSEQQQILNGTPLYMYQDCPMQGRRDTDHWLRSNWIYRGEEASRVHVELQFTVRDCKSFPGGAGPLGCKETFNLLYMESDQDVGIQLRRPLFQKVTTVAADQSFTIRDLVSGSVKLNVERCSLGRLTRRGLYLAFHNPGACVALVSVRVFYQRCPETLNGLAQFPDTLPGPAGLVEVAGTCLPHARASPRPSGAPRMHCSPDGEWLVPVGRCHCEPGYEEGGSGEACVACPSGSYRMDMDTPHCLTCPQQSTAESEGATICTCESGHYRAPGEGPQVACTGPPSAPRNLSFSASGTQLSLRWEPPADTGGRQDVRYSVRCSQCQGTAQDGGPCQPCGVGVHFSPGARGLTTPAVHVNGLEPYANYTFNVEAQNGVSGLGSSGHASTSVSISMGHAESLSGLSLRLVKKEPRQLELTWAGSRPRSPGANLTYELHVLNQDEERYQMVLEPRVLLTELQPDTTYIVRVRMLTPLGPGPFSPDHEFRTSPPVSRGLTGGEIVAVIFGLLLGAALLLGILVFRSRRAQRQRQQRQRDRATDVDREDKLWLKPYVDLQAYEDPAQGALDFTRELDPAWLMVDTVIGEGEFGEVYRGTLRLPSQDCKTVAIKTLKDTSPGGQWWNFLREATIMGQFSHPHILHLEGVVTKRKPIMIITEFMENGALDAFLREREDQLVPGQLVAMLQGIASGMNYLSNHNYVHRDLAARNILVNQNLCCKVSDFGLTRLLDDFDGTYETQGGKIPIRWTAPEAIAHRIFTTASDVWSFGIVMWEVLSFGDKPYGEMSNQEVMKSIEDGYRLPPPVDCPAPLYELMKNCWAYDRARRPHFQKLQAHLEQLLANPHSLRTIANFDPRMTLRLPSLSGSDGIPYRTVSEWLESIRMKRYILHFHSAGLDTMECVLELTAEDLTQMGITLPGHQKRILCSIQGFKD
Experimental: as §1

MKK6 SDTD = biological target: T5, MKK6 SDTD (Homo sapiens, UniProt P52564, S207D/T211D)
T5 construct: purchased ProQinase (Freiburg, Germany)
T5 sequence (P52564 1-334 S207D/T211D): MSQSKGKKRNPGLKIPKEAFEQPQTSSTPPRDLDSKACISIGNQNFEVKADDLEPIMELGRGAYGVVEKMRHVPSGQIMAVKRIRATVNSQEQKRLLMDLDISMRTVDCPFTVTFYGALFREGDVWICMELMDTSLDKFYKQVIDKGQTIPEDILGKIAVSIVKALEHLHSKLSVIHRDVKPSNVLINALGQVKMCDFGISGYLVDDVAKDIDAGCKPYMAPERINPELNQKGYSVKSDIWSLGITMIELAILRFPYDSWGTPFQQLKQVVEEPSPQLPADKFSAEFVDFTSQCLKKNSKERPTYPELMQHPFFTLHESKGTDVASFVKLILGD
Experimental: as §1

MEK5 = biological target: T6, MEK5 (Homo sapiens, UniProt Q13163)
T6 construct: purchased ProQinase (Freiburg, Germany)
T6 sequence (Q13163 1-448): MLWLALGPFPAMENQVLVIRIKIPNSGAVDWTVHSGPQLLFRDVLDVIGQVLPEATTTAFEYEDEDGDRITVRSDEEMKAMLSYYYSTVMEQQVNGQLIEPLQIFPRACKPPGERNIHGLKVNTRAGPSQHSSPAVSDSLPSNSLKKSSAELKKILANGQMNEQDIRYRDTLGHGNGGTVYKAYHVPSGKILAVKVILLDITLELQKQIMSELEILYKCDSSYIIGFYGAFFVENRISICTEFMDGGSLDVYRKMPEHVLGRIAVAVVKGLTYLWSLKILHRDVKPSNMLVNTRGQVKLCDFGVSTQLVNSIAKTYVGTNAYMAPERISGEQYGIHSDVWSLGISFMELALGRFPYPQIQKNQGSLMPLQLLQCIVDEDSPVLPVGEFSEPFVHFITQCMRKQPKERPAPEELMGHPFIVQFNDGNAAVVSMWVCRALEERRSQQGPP
Experimental: as §1

ROS = biological target: T7, ROS (Homo sapiens, UniProt P08922)
T7 construct: purchased ProQinase (Freiburg, Germany)
T7 sequence (P08922 28-2347): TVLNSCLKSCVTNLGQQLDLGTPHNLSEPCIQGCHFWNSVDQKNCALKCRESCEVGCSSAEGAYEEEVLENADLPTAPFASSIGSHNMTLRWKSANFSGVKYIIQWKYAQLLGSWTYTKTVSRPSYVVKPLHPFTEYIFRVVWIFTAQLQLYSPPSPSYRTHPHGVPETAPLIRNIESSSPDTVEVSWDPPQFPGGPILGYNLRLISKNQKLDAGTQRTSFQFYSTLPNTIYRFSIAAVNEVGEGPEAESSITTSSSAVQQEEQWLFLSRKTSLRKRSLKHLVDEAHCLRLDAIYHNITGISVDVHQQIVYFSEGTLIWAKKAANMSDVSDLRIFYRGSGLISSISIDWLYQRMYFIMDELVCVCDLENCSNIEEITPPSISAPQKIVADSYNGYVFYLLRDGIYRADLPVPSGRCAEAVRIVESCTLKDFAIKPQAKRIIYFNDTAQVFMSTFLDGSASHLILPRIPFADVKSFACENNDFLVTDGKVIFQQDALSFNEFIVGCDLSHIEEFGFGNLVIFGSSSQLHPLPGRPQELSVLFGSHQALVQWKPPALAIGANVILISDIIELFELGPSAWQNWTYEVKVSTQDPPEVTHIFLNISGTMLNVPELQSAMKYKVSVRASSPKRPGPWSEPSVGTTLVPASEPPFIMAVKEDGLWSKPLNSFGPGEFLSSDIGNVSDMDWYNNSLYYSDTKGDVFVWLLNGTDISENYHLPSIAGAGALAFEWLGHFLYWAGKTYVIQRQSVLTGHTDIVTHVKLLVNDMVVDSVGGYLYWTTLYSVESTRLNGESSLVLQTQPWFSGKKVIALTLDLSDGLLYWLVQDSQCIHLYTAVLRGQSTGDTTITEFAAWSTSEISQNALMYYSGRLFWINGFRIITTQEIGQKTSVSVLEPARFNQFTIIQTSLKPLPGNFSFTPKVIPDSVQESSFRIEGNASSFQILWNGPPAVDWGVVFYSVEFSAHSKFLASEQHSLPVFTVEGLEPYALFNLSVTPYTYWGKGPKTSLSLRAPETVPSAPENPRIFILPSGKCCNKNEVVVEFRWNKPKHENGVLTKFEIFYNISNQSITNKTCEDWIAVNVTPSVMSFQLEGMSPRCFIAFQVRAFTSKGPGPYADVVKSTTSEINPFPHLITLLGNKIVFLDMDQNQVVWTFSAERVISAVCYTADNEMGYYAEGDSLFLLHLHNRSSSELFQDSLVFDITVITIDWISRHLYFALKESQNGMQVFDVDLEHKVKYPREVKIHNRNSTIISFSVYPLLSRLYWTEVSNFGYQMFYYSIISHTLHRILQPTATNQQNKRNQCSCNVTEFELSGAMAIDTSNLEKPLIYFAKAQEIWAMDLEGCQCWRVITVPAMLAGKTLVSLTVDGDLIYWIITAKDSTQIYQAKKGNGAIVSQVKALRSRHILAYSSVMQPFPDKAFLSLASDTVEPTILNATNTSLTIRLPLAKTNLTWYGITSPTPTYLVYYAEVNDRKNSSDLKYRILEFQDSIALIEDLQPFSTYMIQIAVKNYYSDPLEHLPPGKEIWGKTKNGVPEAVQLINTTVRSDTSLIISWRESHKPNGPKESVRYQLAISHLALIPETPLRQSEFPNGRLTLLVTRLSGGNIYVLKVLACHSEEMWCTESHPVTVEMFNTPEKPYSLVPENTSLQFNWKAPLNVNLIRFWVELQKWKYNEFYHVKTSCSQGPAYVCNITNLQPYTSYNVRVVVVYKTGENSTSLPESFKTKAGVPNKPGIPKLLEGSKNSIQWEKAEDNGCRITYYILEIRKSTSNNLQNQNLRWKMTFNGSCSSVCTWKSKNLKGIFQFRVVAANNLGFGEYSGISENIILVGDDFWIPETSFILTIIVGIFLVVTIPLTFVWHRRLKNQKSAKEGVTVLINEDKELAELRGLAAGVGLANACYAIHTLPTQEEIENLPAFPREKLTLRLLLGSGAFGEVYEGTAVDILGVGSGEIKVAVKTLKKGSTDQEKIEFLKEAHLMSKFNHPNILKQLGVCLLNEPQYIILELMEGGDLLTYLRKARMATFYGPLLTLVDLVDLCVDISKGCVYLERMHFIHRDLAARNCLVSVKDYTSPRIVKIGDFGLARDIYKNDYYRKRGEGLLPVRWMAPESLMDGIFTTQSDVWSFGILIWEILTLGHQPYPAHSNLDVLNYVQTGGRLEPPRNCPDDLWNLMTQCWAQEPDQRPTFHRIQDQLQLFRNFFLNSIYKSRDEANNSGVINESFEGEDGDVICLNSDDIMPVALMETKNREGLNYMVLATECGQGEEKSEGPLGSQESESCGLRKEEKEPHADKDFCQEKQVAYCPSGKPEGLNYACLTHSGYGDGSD
Experimental: as §1

GRK4 = biological target: T8, GRK4 (Homo sapiens, UniProt P32298)
T8 construct: purchased ProQinase (Freiburg, Germany)
T8 sequence (P32298 whole entry): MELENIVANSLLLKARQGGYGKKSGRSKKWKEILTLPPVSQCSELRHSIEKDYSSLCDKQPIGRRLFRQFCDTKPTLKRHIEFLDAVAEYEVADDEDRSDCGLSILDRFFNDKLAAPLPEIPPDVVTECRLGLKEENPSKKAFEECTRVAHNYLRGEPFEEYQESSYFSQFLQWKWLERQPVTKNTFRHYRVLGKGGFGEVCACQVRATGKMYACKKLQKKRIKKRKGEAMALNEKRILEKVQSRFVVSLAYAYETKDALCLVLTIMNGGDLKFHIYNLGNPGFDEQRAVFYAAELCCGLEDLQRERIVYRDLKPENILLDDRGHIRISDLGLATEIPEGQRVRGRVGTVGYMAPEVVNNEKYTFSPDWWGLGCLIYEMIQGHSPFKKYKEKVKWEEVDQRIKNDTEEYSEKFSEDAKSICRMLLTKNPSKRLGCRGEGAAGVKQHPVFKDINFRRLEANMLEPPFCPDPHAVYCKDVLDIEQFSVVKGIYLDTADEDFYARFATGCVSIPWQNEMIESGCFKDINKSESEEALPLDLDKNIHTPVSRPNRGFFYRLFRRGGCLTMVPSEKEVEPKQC
Experimental: as §1

PKCbeta1 = biological target: T9, PKCbeta1 (Homo sapiens, UniProt P05771)
T9 construct: purchased ProQinase (Freiburg, Germany)
T9 sequence (P05771 whole entry): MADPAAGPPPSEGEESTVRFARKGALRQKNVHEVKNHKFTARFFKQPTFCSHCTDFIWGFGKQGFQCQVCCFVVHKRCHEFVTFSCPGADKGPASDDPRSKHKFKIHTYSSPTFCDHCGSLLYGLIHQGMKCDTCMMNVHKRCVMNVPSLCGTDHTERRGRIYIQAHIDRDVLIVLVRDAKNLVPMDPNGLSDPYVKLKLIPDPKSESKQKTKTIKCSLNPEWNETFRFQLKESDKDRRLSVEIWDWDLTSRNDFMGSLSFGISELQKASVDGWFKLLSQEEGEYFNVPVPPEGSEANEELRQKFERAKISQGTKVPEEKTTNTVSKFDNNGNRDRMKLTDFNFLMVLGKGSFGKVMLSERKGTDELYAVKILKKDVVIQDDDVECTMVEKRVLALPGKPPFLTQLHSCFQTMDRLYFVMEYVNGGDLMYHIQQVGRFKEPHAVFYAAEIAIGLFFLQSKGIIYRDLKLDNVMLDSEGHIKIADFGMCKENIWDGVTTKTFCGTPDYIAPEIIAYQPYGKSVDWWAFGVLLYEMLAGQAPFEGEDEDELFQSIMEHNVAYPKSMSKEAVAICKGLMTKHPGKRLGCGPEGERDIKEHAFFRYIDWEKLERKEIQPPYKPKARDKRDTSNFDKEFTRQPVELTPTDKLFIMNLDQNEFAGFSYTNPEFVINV
Experimental: as §1

PYK2 = biological target: T10, PYK2 (Homo sapiens, UniProt Q14289)
T10 construct: purchased ProQinase (Freiburg, Germany)
Experimental: as §1

YES = biological target: T11, YES (Homo sapiens, UniProt P07947)
T11 construct: purchased ProQinase (Freiburg, Germany)
Experimental: as §1

Structure (SMILES): O=C(Cc1ccccc1)Nc1ccc(F)c(Nc2ccc3c(c2)CCCCC3=O)c1 [Compound 100]
- Residual activity (DYRK1B; 1.0E-05 M): 117 % of control
- Residual activity (DYRK1B; 1.0E-06 M): 103 % of control
- Residual activity (PKMYT1; 1.0E-05 M): 93 % of control
- Residual activity (PKMYT1; 1.0E-06 M): 102 % of control
- Residual activity (EGFR; 1.0E-05 M): 99 % of control
- Residual activity (EGFR; 1.0E-06 M): 100 % of control
- Residual activity (EPHA1; 1.0E-05 M): 71 % of control
- Residual activity (EPHA1; 1.0E-06 M): 83 % of control
- Residual activity (MKK6 SDTD; 1.0E-05 M): 109 % of control
- Residual activity (MKK6 SDTD; 1.0E-06 M): 89 % of control
- Residual activity (MEK5; 1.0E-05 M): 114 % of control
- Residual activity (MEK5; 1.0E-06 M): 118 % of control
- Residual activity (ROS; 1.0E-05 M): 91 % of control
- Residual activity (ROS; 1.0E-06 M): 99 % of control
- Residual activity (GRK4; 1.0E-05 M): 86 % of control
- Residual activity (GRK4; 1.0E-06 M): 116 % of control
- Residual activity (PKCbeta1; 1.0E-05 M): 92 % of control
- Residual activity (PKCbeta1; 1.0E-06 M): 91 % of control
- Residual activity (PYK2; 1.0E-05 M): 79 % of control
- Residual activity (PYK2; 1.0E-06 M): 108 % of control
- Residual activity (YES; 1.0E-05 M): 70 % of control
- Residual activity (YES; 1.0E-06 M): 87 % of control

Structure (SMILES): O=C(Nc1ccc(F)c(Nc2ccc3c(c2)CCCCC3=O)c1)c1cccc(F)c1 [Compound 109]
- Residual activity (DYRK1B; 1.0E-05 M): 96 % of control
- Residual activity (DYRK1B; 1.0E-06 M): 103 % of control
- Residual activity (PKMYT1; 1.0E-05 M): 95 % of control
- Residual activity (PKMYT1; 1.0E-06 M): 98 % of control
- Residual activity (EGFR; 1.0E-05 M): 93 % of control
- Residual activity (EGFR; 1.0E-06 M): 105 % of control
- Residual activity (EPHA1; 1.0E-05 M): 85 % of control
- Residual activity (EPHA1; 1.0E-06 M): 91 % of control
- Residual activity (MKK6 SDTD; 1.0E-05 M): 137 % of control
- Residual activity (MKK6 SDTD; 1.0E-06 M): 85 % of control
- Residual activity (MEK5; 1.0E-05 M): 94 % of control
- Residual activity (MEK5; 1.0E-06 M): 104 % of control
- Residual activity (ROS; 1.0E-05 M): 85 % of control
- Residual activity (ROS; 1.0E-06 M): 97 % of control
- Residual activity (GRK4; 1.0E-05 M): 130 % of control
- Residual activity (GRK4; 1.0E-06 M): 103 % of control
- Residual activity (PKCbeta1; 1.0E-05 M): 87 % of control
- Residual activity (PKCbeta1; 1.0E-06 M): 93 % of control
- Residual activity (PYK2; 1.0E-05 M): 80 % of control
- Residual activity (PYK2; 1.0E-06 M): 87 % of control
- Residual activity (YES; 1.0E-05 M): 77 % of control
- Residual activity (YES; 1.0E-06 M): 98 % of control
